Test results: ChEMBL document CHEMBL1681641, “Discovery of substituted phenyl urea derivatives as novel long-acting β2-adrenoreceptor agonists” (Bioorg Med Chem Lett, 2011)
In brackets after ≈: the same amount, converted by molar mass.

Assays:
Cavia porcellus [1] = test: Bronchocoprotective activity in guinea pig assessed as inhibition of acetylcholine-induced bronchoconstriction administered by aerosol after 4 hrs; format: functional, organism-based
Cavia porcellus [2] = test: Bronchocoprotective activity in guinea pig assessed as inhibition of acetylcholine-induced bronchoconstriction administered by aerosol after 24 hrs; format: functional, organism-based
[3] = biological target: Beta-2 adrenergic receptor (Cavia porcellus, UniProt Q8K4Z4); test: Agonist activity at beta2 adrenoceptor in guinea pig tracheal rings assessed as relaxation of tracheal smooth muscle; format: functional, tissue-based, Trachea
[4] = Bronchodialatory activity in guinea pig trachea assessed as tone recovery measured after 1 hr of drug washout; format: functional, Cavia porcellus; parameters: concentration or dose not given beside the values
[5] = biological target: Beta-1 adrenergic receptor (Rattus norvegicus, UniProt P18090); test: Agonist activity at beta1 adrenoceptor in rat left atria assessed as induction of ionotropic effect; format: functional
Chain of Beta-1 adrenergic receptor (P18090 whole entry): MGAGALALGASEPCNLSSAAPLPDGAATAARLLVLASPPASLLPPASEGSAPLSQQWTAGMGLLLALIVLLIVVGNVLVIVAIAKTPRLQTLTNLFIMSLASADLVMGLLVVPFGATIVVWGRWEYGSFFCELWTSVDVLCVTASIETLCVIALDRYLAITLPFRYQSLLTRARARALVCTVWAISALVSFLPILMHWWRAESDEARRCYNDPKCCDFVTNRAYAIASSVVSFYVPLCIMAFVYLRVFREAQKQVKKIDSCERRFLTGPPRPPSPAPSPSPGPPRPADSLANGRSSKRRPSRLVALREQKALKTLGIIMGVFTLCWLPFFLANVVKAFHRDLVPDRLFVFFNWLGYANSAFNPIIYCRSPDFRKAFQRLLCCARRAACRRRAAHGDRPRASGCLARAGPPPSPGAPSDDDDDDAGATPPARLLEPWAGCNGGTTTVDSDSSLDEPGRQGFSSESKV

Chain of Beta-2 adrenergic receptor (Q8K4Z4 whole entry): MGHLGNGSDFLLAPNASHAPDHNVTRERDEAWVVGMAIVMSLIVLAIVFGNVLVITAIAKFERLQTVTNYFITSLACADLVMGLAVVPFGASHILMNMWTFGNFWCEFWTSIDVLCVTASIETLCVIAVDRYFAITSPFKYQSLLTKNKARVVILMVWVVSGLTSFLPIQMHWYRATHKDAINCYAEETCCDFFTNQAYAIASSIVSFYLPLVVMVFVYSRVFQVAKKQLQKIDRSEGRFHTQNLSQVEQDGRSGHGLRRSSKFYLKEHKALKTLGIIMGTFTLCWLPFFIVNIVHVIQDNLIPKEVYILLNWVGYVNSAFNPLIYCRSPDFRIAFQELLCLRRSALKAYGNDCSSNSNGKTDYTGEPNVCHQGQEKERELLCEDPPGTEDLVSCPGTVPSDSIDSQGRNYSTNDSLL

Row | IC50 (Cavia porcellus [1]) [µg/mL] | IC50 (Cavia porcellus [2]) [µg/mL] | EC50 [3] [nM] | EC50 [5] [µM] | SMILES | Activity [4] [%]
1 | 0.3 (≈ 0.635 µM) | > 100 | 0.2 | 0.9 | O=C(NCc1ccccc1)Nc1cccc(CCNCC(O)c2ccc(O)c3[nH]c(=O)ccc23)c1 (stereo unspecified) | 15
2 |  |  | 0.13 |  | NC(=O)c1cccc(CNC(=O)Nc2cccc(CCNCC(O)c3ccc(O)c4[nH]c(=O)ccc34)c2)c1 (stereo unspecified) | 52
3 |  |  | 0.2 | 0.55 | COc1ccccc1CNC(=O)Nc1cccc(CCNCC(O)c2ccc(O)c3[nH]c(=O)ccc23)c1 (stereo unspecified) | 23
4 |  |  | 0.2 | 6.3 | O=C(NCc1ccc(F)cc1)Nc1cccc(CCNCC(O)c2ccc(O)c3[nH]c(=O)ccc23)c1 (stereo unspecified) | 16
5 | 4 (≈ 7.39 µM) | > 100 | 0.2 | 1.6 | O=C(NCc1c(Cl)cccc1Cl)Nc1cccc(CCNCC(O)c2ccc(O)c3[nH]c(=O)ccc23)c1 (stereo unspecified) | 4

The next lines start with the compound.

Row | SMILES | IC50 (Cavia porcellus [1]) [µg/mL] | IC50 (Cavia porcellus [2]) [µg/mL] | EC50 [3] [nM] | EC50 [5] [µM] | Activity [4] [%]
6 | O=C(Nc1ccccc1)Nc1cccc(CCNCC(O)c2ccc(O)c3[nH]c(=O)ccc23)c1 (stereo unspecified) | 0.2 (≈ 0.436 µM) | 3 (≈ 6.54 µM) | 0.07 | > 10 | 12
7 | O=C(NCCc1ccccc1)Nc1cccc(CCNCC(O)c2ccc(O)c3[nH]c(=O)ccc23)c1 (stereo unspecified) | 2 (≈ 4.11 µM) | > 10 | 0.09 | > 10 | 9
8 | O=C(NCCCc1ccccc1)Nc1cccc(CCNCC(O)c2ccc(O)c3[nH]c(=O)ccc23)c1 (stereo unspecified) | 1 (≈ 2 µM) | 3 (≈ 5.99 µM) | 0.05 | > 10 | 2
9 | O=C(Nc1cccc(CCNCC(O)c2ccc(O)c3[nH]c(=O)ccc23)c1)NC(c1ccccc1)c1ccccc1 (stereo unspecified) | 1 (≈ 1.82 µM) | 1.5 (≈ 2.73 µM) | 0.2 | 8.89 | 2
10 | O=C(Nc1cccc(CCNCC(O)c2ccc(O)c3[nH]c(=O)ccc23)c1)Nc1ccccc1-c1ccccc1 (stereo unspecified) | 3 (≈ 5.61 µM) | 7 (≈ 13.1 µM) | 0.7 | 5.77 | 4
11 | O=C(NCC12CC3CC(CC(C3)C1)C2)Nc1cccc(CCNCC(O)c2ccc(O)c3[nH]c(=O)ccc23)c1 (stereo unspecified) |  |  | 3.2 | 0.296 | 8
12 | O=C(Nc1cccc(CCNCC(O)c2ccc(O)c3[nH]c(=O)ccc23)c1)Nc1cccc(Oc2ccccc2)c1 (stereo unspecified) |  |  | 1 | 10 | 0
13 | CC(C)(C)c1ccc(CNC(=O)Nc2cccc(CCNCC(O)c3ccc(O)c4[nH]c(=O)ccc34)c2)cc1 (stereo unspecified) |  |  | 0.9 |  | 5
14 | NC(=O)C(c1ccccc1)(c1ccccc1)[C@@H]1CCN(CCc2ccc3c(c2)CCO3)C1 [DARIFENACIN] | 5 (≈ 11.7 µM) | 12 (≈ 28.1 µM) | 1 | 2.31 | 0
